Columns and labels:
Assay type in all cases: binding
[1] = test system: biotinylated histone peptides (residues 1–20 of H3); assay: Pull-down of GST-CHD3 PHDs with biotinylated histone H3 peptides, Western blot; conditions: blots overexposed to the same degree as PHD1/2; 2 h at 4 °C, pH 8.0
CHD3 PHD1 = CHD3 PHD1 (Homo sapiens, UniProt Q12873); assay: 1H,15N HSQC NMR titration, CHD3 PHD1; conditions: compared with unmodified H3; protein:peptide ratio 1:0.5; 298 K
CHD3 PHD2 = CHD3 PHD2 (Homo sapiens, UniProt Q12873); assay: 1H,15N HSQC NMR titration, CHD3 PHD2; conditions: compared with unmodified H3; protein:peptide ratio 1:0.5; 298 K
CHD3 PHD1/2 = assay: 1H,15N HSQC NMR titration, linked CHD3 PHD1/2; conditions: 15N-labelled PHD1/2, 298 K, H3 peptides aa 1–12

Row | Substance | pull-down association of individual PHD1 and PHD2 with histone peptides [1] | effect of modification on binding by NMR CSPs, PHD1 (CHD3 PHD1) | effect of modification on binding by NMR CSPs, PHD2 (CHD3 PHD2) | chemical shift perturbations, linked PHD1/2 (CHD3 PHD1/2)
1 | PHD2: PHD2 (454–508) of CHD3 (DHMEYCRVCKDGGELLCCDACISSYHIHCLNPPLPDIPNGEWLCPRCTCPVLKGR; left off: GST, end not stated, cleaved) | barely detectable | – | – | –
2 | PHD1: PHD1 (373–427) of CHD3 (GYETDHQDYCEVCQQGGEIILCDTCPRAYHLVCLDPELDRAPEGKWSCPHCEKEG; left off: GST, end not stated, cleaved) | barely detectable | – | – | –
3 | H3K4me3: histone H3 peptide (aa 1–12) with the K4me3 modification | – | strong inhibitory effects | strong inhibitory effects | CSPs consistent with a much weaker association

Reference: paper PMC5653232 (Cell reports, 2017)
